Consider two molecules from patent publication US20060084688A1, “Aromatic sulfone hydroxamic acid metalloprotease inhibitor” (priority 1997, published 2006).

In series [1] the test system is neovascularization of the corneal stroma. Nature of the series: In vivo angiogenesis assay (corneal micropocket, bFGF/sucralfate Hydron pellet). Further details: species or system C57Bl/6 female mouse. The settings on record: 50 mpk bid, po; scored at day five; average of n studies. How it is done: The study of angiogenesis depends on a reliable and reproducible model for the stimulation and inhibition of a neovascular response. The corneal micropocket assay provides such a model of angiogenesis in the cornea of a mouse. See, A Model of Angiogenesis in the Mouse Cornea; Kenyon, BM, et al., Investigative Ophthalmology & Visual Science, July 1996, Vol. 37, No. 8.
In this assay, uniformLy sized Hydron™ pellets containing bFGF and sucralfate were prepared and surgically implanted into the stroma mouse cornea adjacent to the temporal limbus. […]
Mice were dosed on a daily basis for the duration of the assay. […] At day five, the degree of angiogenic inhibition was scored by viewing the neovascular progression with a slit lamp microscope.
The mice were anesthetized and the studied eye was once again proptosed. The maximum vessel length of neovascularization, extending from the limbal vascular plexus toward the pellet was measured. In addition, the contiguous circumferential zone of neovascularization was measured as clock hours, where 30 degrees of arc equals one clock hour. The area of angiogenesis was calculated as follows. […]
Five to six mice were utilized for each compound in each study. The studied mice were thereafter compared to control mice and the difference in the area of neovascularization was recorded as an averaged value. […]

In series [2] the test system is PC-3 human pancreatic cancer cells (ATCC CRL 1435). The series can be described thus: In vivo PC-3 tumor reduction. Details: species or system Balb/c nu/nu mice. The settings on record: day 0 to day 25-30, average of n studies. How it is done:
PC-3 human pancreatic cancer eclls (ATCC CRL 1435) were grown to 90% confluence in F12/MEM (Gibco) containing 7% FBS (Gibco). Cells were mechanically harvested using a rubber scraper, and then washed twice with cold medium. The resulting cells were resuspended in cold medium with 30% matrigel (Collaborative Research) and the cell-containing medium was maintained on ice until used.
Balb/c nu/nu mice at 7-9 weeks of age were anesthetized with avertin [2,2,2-tribromethanol/t-amyl alcohol (1 g/l mL) diluted 1:60 into phosphate-buffered sline] and 3-5×10^6 of the above cells in 0.2 mL of medium were injected into the left flank of each mouse. Cells were injected in the morning, whereas dosing with an inhibitor began at 6 PM. The animals were gavaged BID from day zero (cell injection day) to day 25-30, at which time the animals were euthanized and tumors weighed.
Compounds were dosed at 10 mg/mL in 0.5% methylcellulose/0.1% polysorbate 80 to provide a 50 mg/kg (mpk) dose twice each day, or diluted to provide a 10 mg/kg (mpk) dose twice each day. Tumor measurements began on day 7 and continued every third or fourth day until completion of the study. Groups of ten mice were used in each study and nine to ten survived. Each group of mice so studied constitutes an “n” value of one, so that “n” values greater than one represent multiple studies whose averaged result is provided in the table. […]

The test system of series [3] is advanced, rapidly progressive, treatment-refractory solid tumor cancers (colorectal, pancreatic, ovarian, prostate). Particulars: Phase I/II, cited from earlier work.
Series [4] deals with human monocytic line U-937. The class given is cell-based.
The conditions of series [5]: Rat Intraveneous, 20 mpk.
The test system of the next series is TNFrII. Nature of the series: Tumor necrosis factor assay: TNF Receptor II ELISA on supernatant of PMA-stimulated U-937 cells. Particulars: Homo sapiens, U-937, read-out: TNFRII Release IC50 in micromolar. On the technique in general: In an ELISA, binding on a coated surface is turned into a signal by an enzyme label.

Molecules are shown by their SMILES.

Usually IC50 stands for the concentration that gives 50% inhibition.

Turning to `CNC(=O)[C@@H](NC(=O)[C@H](CC(C)C)[C@H](O)C(=O)NO)C(C)(C)C` [marimastat], in series [1], the “Inhibition of Angiogenesis (area of neovascularization vs control)” value is listed as 48 (n = 6) percent. The “Average Percentage Reduction In Tumor Weight” value is listed as less than 5% in series [2] (10 mpk BID gavage) and 39 (n = 2) percent in series [2] (50 mpk BID gavage). In addition, the “most common drug-related toxicity” value in series [3] (clinical trials) is “musculoskeletal pain and stiffness”. In series [3] (patients with advanced solid tumor cancers), the “cancer-specific antigens used as surrogate markers for biological activity” value was “dose-related reduction in the rise of cancer-specific antigens”.

As for `O=C(NO)C1(S(=O)(=O)c2ccc(Sc3ccccc3)cc2)CCOCC1` [Example 95, Tetrahydro-N-hydroxy-4-[[4-(phenylthio)phenyl]sulfonyl]-2H-pyran-4-carboxamide], in series [4], the “MTS Toxicity TD50” value was more than 100 µM. Besides, the t1/2 in series [5] was 1.06 h. Further, the IC50 with TNFrII is more than 100 µM.
